From US10772893B2, “2-(morpholin-4-yl)-1,7-naphthyridines” (BAYER PHARMA AKTIENGESELLSCHAFT, priority 2014, dated 2020)

Tested on: HeLa cells
Test: Proliferation assay, crystal violet staining
Settings: Homo sapiens, 96 h, read-out: Inhibition of HeLa cell proliferation, HeLa cells, 4 days incubation

IC50	SMILES
953 nM	C[C@@H]1COCCN1c1cc(-c2cnc(S(C)(=O)=O)c(F)c2)c2ccnc(-c3ccn[nH]3)c2n1 [Example 147, 4-[5-fluoro-6-(methylsulfonyl)pyridin-3-yl]-2-[(3R)-3-methylmorpholin-4-yl]-8-(1H-pyrazol-5-yl)-1,7-naphthyridine]
2960 nM	Nc1cccc(-c2cc(N3CCOCC3)nc3c(-c4ccn[nH]4)nccc23)c1 [Example 335, 3-[2-(morpholin-4-yl)-8-(1H-pyrazol-5-yl)-1,7-naphthyridin-4-yl]aniline]
263 nM	Cc1nn(C)c(C)c1-c1cc(N2CCOC[C@H]2C)nc2c(-c3ccn[nH]3)nccc12 [Example 258, 2-[(3R)-3-methylmorpholin-4-yl]-8-(1H-pyrazol-5-yl)-4-(1,3,5-trimethyl-1H-pyrazol-4-yl)-1,7-naphthyridine]
431 nM	C[C@@H]1COCCN1c1cc(-c2ccc(F)cc2F)c2ccnc(-c3ccn[nH]3)c2n1 [Example 123, 4-(2,4-difluorophenyl)-2-[(3R)-3-methylmorpholin-4-yl]-8-(1H-pyrazol-5-yl)-1,7-naphthyridine]
998 nM	C[C@@H]1COCCN1c1cc(C2CC[S+]([O-])CC2)c2ccnc(-c3ccn[nH]3)c2n1 (stereo partly drawn) [Example 203, 2-[(3R)-3-methylmorpholin-4-yl]-4-[1-oxidotetrahydro-2H-thiopyran-4-yl]-8-(1H-pyrazol-5-yl)-1,7-naphthyridine]
2540 nM	OCc1cccc(-c2cc(N3CCOCC3)nc3c(-c4ccn[nH]4)nccc23)c1 [Example 313, {3-[2-(morpholin-4-yl)-8-(1H-pyrazol-5-yl)-1,7-naphthyridin-4-yl]phenyl}methanol]
2420 nM	CN(C)C(=O)c1ccc(-c2cc(N3CCOCC3)nc3c(-c4ccn[nH]4)nccc23)cc1 [Example 324, N,N-dimethyl-4-[2-(morpholin-4-yl)-8-(1H-pyrazol-5-yl)-1,7-naphthyridin-4-yl]benzamide]
5080 nM	CS(=O)(=O)Cc1cc(N2CCOCC2)nc2c(-c3ccn[nH]3)nccc12 [Example 37, 4-methanesulphonylmethyl-2-morpholin-4-yl-8-(2H-pyrazol-3-yl)-[1,7]naphthyridine]
312 nM	C[C@@H]1COCCN1c1cc(-c2cnn(C3CC3)c2)c2ccnc(-c3ccn[nH]3)c2n1 [Example 254, 4-(1-cyclopropyl-1H-pyrazol-4-yl)-2-[(3R)-3-methylmorpholin-4-yl]-8-(1H-pyrazol-5-yl)-1,7-naphthyridine]
> 3000 nM	c1ccc(-c2ccccc2-c2cc(N3CCOCC3)nc3c(-c4ccn[nH]4)nccc23)cc1 [Example 345, 4-(biphenyl-2-yl)-2-(morpholin-4-yl)-8-(1H-pyrazol-5-yl)-1,7-naphthyridine]
> 3000 nM	CN(C)c1cccc(-c2cc(N3CCOCC3)nc3c(-c4ccn[nH]4)nccc23)c1 [Example 320, N,N-dimethyl-3-[2-(morpholin-4-yl)-8-(1H-pyrazol-5-yl)-1,7-naphthyridin-4-yl]aniline]
671 nM	C[C@@H]1COCCN1c1cc(-c2cccc(F)n2)c2ccnc(-c3ccn[nH]3)c2n1 [Example 152, 4-(6-fluoropyridin-2-yl)-2-[(3R)-3-methylmorpholin-4-yl]-8-(1H-pyrazol-5-yl)-1,7-naphthyridine]
2950 nM	Fc1ccc(-c2cc(N3CCOCC3)nc3c(-c4ccn[nH]4)nccc23)c(F)c1 [Example 340, 4-(2,4-difluorophenyl)-2-(morpholin-4-yl)-8-(1H-pyrazol-5-yl)-1,7-naphthyridine]
> 3000 nM	CC(C)(O)c1cc(N2CCOCC2)nc2c(-c3ccn[nH]3)nccc12 [Example 173, 2-[2-(morpholin-4-yl)-8-(1H-pyrazol-5-yl)-1,7-naphthyridin-4-yl]propan-2-ol]
451 nM	C[C@@H]1COCCN1c1cc(-c2ccn(CCO)n2)c2ccnc(-c3ccn[nH]3)c2n1 [Example 160, 2-(3-{2-[(3R)-3-methylmorpholin-4-yl]-8-(1H-pyrazol-5-yl)-1,7-naphthyridin-4-yl}-1H-pyrazol-1-yl)ethanol]
558 nM	C[C@@H]1COCCN1c1cc(-c2cnn(C3CCC3)c2)c2ccnc(-c3ccn[nH]3)c2n1 [Example 253, 4-(1-cyclobutyl-1H-pyrazol-4-yl)-2-[(3R)-3-methylmorpholin-4-yl]-8-(1H-pyrazol-5-yl)-1,7-naphthyridine]
655 nM	Cc1ncc(-c2cc(N3CCOC[C@H]3C)nc3c(-c4ccn[nH]4)nccc23)s1 [Example 78, 2-[(3R)-3-methylmorpholin-4-yl]-4-(2-methyl-1,3-thiazol-5-yl)-8-(1H-pyrazol-5-yl)-1,7-naphthyridine]
568 nM	C[C@@H]1COCCN1c1cc(C2CCS(=O)(=O)CC2)c2ccnc(-c3ccn[nH]3)c2n1 [Example 204, 4-(1,1-dioxidotetrahydro-2H-thiopyran-4-yl)-2-[(3R)-3-methylmorpholin-4-yl]-8-(1H-pyrazol-5-yl)-1,7-naphthyridine]
380 nM	C[C@@H]1COCCN1c1cc(-c2ccncc2F)c2ccnc(-c3ccn[nH]3)c2n1 [Example 230, 4-(3-fluoropyridin-4-yl)-2-[(3R)-3-methylmorpholin-4-yl]-8-(1H-pyrazol-5-yl)-1,7-naphthyridine]
1070 nM	C[C@@H]1COCCN1c1cc(-c2ccnn2C2COC2)c2ccnc(-c3ccn[nH]3)c2n1 [Example 133, 2-[(3R)-3-methylmorpholin-4-yl]-4-[1-(oxetan-3-yl)-1H-pyrazol-5-yl]-8-(1H-pyrazol-5-yl)-1,7-naphthyridine]
578 nM	CC(C)COP(C)(=O)c1cc(N2CCOC[C@H]2C)nc2c(-c3ccn[nH]3)nccc12 (stereo partly drawn) [Example 127, isobutyl methyl{2-[(3R)-3-methylmorpholin-4-yl]-8-(1H-pyrazol-5-yl)-1,7-naphthyridin-4-yl}phosphinate]
2970 nM	C[C@@H]1COCCN1c1cc(N)c2ccnc(-c3ccn[nH]3)c2n1 [Example 267, 2-[(3R)-3-methylmorpholin-4-yl]-8-(1H-pyrazol-5-yl)-1,7-naphthyridin-4-amine]
1520 nM	O=C(NC1CC1)c1ccc(-c2cc(N3CCOCC3)nc3c(-c4ccn[nH]4)nccc23)cc1 [Example 291, N-cyclopropyl-4-[2-(morpholin-4-yl)-8-(1H-pyrazol-5-yl)-1,7-naphthyridin-4-yl]benzamide]
> 3000 nM	Clc1cccc(-c2cc(N3CCOCC3)nc3c(-c4ccn[nH]4)nccc23)c1 [Example 304, 4-(3-chlorophenyl)-2-(morpholin-4-yl)-8-(1H-pyrazol-5-yl)-1,7-naphthyridine]
999 nM	Cc1nn(C)c(C)c1-c1cc(N2CCOCC2)nc2c(-c3ccn[nH]3)nccc12 [Example 273, 2-(morpholin-4-yl)-8-(1H-pyrazol-5-yl)-4-(1,3,5-trimethyl-1H-pyrazol-4-yl)-1,7-naphthyridine]
1330 nM	Cc1nn(C)cc1-c1cc(N2CCOCC2)nc2c(-c3ccn[nH]3)nccc12 [Example 271, 4-(1,3-dimethyl-1H-pyrazol-4-yl)-2-(morpholin-4-yl)-8-(1H-pyrazol-5-yl)-1,7-naphthyridine]
759 nM	CCn1cnc(-c2cc(N3CCOC[C@H]3C)nc3c(-c4ccn[nH]4)nccc23)c1 [Example 153, 4-(1-ethyl-1H-imidazol-4-yl)-2-[(3R)-3-methylmorpholin-4-yl]-8-(1H-pyrazol-5-yl)-1,7-naphthyridine]
